This note sets out measurements from US20080146516A1, “Novel C-Glycosides, uses thereof” (L 'OREAL SA, priority 2004, published 2008).

The assay relates to normal human dermal fibroblasts. As to the kind of experiment: Synthesis of glycosaminoglycans (hyaluronic acid): incorporation of radioactivity into the matrix neosynthesized by fibroblast cultures. Type of assay: cell-based. The settings on record: 72 hours incubation; for cpm (radioactivity incorporated into matrix GAGs): 35S-sulphate during final 24 hours; for %/control: relative to the control (100). How it is done: The study was carried out by measuring the incorporation of radioactive glucosamine into the matrix neosynthesized by normal human dermal fibroblast cultures. The incorporation of radioactive glucosamine indicates specific neosynthesis of glycosaminoglycans via incorporation of the sulphated form of this glucosamine.
Normal human dermal fibroblasts were seeded in the conventional culture medium and were then preincubated for 24 hours. The culture medium was then replaced with the test compounds at concentrations of 0.3, 1 and 3 mM; or culture medium (control); or TGFβ at 10 ng/ml (quality control). The cells were incubated for 72 hours with the addition of ^35S-sulphate during the final 24 hours of culture. The GAGs in the matrix were extracted with a chaotropic buffer and then purified by ion exchange chromatography (adsorption of the anionic molecules onto Q-sepharose beads under high stringency conditions, followed by desorption of the weakly and moderately anionic molecules with urea). The radioactivity incorporated into the very […] molecules that remained on the support were counted by liquid scintillation.
The results are expressed as percentage relative to the control: […]

For the compound TGFβ [reference compound], where the note is “10 ng/ml”, the “cpm (radioactivity incorporated into matrix GAGs)” value stood at 9625 cpm and the “%/control” value is 192%.

Consider `C[C@H](O)C[C@@H]1OC[C@@H](O)[C@H](O)[C@H]1O` [Example 1, C-β-D-xylopyranoside-2-(S)-hydroxypropane], for which the “cpm (radioactivity incorporated into matrix GAGs)” value reads like this: (0.3 mM) 16276 cpm; (1 mM) 30943 cpm; (3 mM) 40770 cpm. The “%/control” value reads like this: (0.3 mM) 325%; (1 mM) 618%; (3 mM) 814%.
